Data: patent US11007273B2, “Prochelators as targeted prodrugs for prostate cancer and methods of making and using same” (Duke University, priority 2017, dated 2021)
Like-named read-outs stand apart in the source and are kept apart here. Each block holds one compound with its values, some of them ahead of it.

Key:
[1] = system: 22Rv1, LNCaP, PC3, PWR-1E and MCF-7 cells; experiment: Antiproliferation assay across all cell lines; assay type: cell-based; details: Homo sapiens, 72 h
Protocol: (§1) Antiproliferation assay: To determine the amount of Cu(II) required for cell studies a checkerboard assay was performed by varying the prodrug or drug concentration and Cu(II) concentration. 22RV1, LNCaP, PC3, MCF-7, and PWR-1E (5,000 cells/well) were seeded in 96-well plates with regular media (22Rv1, LNCaP, and PC-3 in RPMI with 10% FBS; MCF-7 in DMEM with 10% FBS; PWR-1E in Keratinocyte-SFM) and let adhere for 24 h. The following day, the media was replaced with serum free media and cells were treated as indicated for an additional 24 h or 72 h. Cell proliferation was measured using a fluorometric resazurin reduction method. 20 μL of 700 μM Resazurin (Sigma R7017) was added in each well and incubated at 37° C. for 2 h. Fluorescence at 580 nm was measured by exciting at 555 nm with a plate reader. Each experiment was performed in triplicate, and the experiments were repeated three times. Viability vs drug concentration plot from a representative experiment are shown with standard deviation from the experiment as error bar. The error bar in IC50 values represents standard deviation from three different experiments.

PWR-1E cells = experiment: cells; assay type: cell-based, human; details: Homo sapiens, PWR-1E, PWR-1E
Protocol: as §1

MCF-7 cells = experiment: cells; assay type: cell-based, human; details: Homo sapiens, MCF7, MCF-7
Protocol: as §1

LNCaP cells = experiment: cells; assay type: cell-based, human; details: Homo sapiens, LNCaP, LNCaP
Protocol: as §1

PC-3 cells = experiment: cells; assay type: cell-based, human; details: Homo sapiens, PC-3
Protocol: as §1

22Rv1 cells = experiment: cells; assay type: cell-based, human; details: for IC50: Homo sapiens, 22Rv1
Protocol: as §1

mCRPC patients = details: phase 1, mCRPC patients; cited from earlier work
GGT = GGT (Homo sapiens, UniProt P19440); experiment: Competition experiments vs. γE-pNA for GGT; assay type: biochemical; details: vs E-pNA; PBS, pH 7.4, 1 mM GlyGly
Protocol: Competition experiments vs. γE-pNA for GGT: To perform the inhibition study, a serial dilution of γE-pNA was performed ranging from 1 mM to 3 μM in PBS with 1 mM Gly-Gly (dilution factor=0.5; pH 7.4; 10% DMSO; 100 μL) using a clear, flat bottom 96 well plate. GGT binding molecules, as indicated, were added to separate sets of triplicate wells to reach a final concentration of 10 and 100 μM. Before the addition of enzyme, the plate was cooled to 4° C. for 15 min. To initiate the assay, 10 μL of 50 U/L GGT was added to each well and an initial absorbance scan was performed. Subsequent scans were performed every 10 min for ˜2 h. In between each scan, the plates were stored at 37° C. in a humidified incubator to reduce solvent evaporation. The experiment was repeated in triplicate.
To probe the reactivity of Glu-DTC in comparison to the enzyme's natural substrate GSH, competition experiments were conducted against the colorimetric substrate L-glutamic acid γ-(p-nitroanilide) [E-pNA]. The colorimetric assay involves monitoring p-nitroaniline release by absorbance at 405 nm upon reaction of the probe substrate E-pNA with GGT in the presence of an inhibiting substrate, either Glu-DTC (FIG. 15A) or GSH (FIG. 15C).

[2] = 24 h, 24 h, 1 μM CuSO4, read-out: IC50 with 1 μM CuSO4
[3] = 72 h, 72 h, 1 μM CuSO4, read-out: IC50 with 1 μM CuSO4
[4] = Table 1, time and Cu not given, read-out: IC50 values
[5] = 24 h, 1 μM CuSO4, read-out: IC50 with 1 μM CuSO4
[6] = 72 h, 1 μM CuSO4, read-out: IC50 with 1 μM CuSO4

GGT, sequence (P19440 whole entry, species assumed): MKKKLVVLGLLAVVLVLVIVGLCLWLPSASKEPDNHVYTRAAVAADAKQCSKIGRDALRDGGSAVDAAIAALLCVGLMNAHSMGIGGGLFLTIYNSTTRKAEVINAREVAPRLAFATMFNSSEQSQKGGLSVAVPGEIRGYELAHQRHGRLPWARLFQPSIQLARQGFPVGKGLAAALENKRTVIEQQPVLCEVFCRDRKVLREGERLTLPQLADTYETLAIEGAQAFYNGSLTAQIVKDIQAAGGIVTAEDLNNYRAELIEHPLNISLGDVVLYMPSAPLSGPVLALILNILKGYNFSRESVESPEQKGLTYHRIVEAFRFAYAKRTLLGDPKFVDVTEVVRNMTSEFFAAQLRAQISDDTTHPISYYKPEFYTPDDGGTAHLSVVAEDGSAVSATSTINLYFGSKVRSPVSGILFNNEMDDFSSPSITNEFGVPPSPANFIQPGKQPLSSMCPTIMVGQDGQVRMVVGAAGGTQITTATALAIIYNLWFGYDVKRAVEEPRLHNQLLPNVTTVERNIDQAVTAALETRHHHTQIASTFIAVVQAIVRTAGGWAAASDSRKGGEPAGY

IC50 ([1]; 1 μM CuSO4, read-out: IC50 range across all cell lines): 40 to 150 nM
IC50 ([1]; DSF is a dimer of DTC, read-out: IC50 per monomer): 80 to 300 nM
IC50 (PWR-1E cells; [2]): 80 ± 20 nM
IC50 (PWR-1E cells; [3]): 70 ± 10 nM
IC50 (PWR-1E cells; [4]): 72 nM
IC50 (MCF-7 cells; [5]): 180 ± 10 nM
IC50 (MCF-7 cells; [6]): 47 ± 2 nM
IC50 (MCF-7 cells; [4]): 130 nM
IC50 (LNCaP cells; [2]): 130 ± 20 nM
IC50 (LNCaP cells; [3]): 140 ± 10 nM
IC50 (LNCaP cells; [4]): 120 nM
IC50 (PC-3 cells; [5]): 70 ± 10 nM
IC50 (PC-3 cells; [6]): 57 ± 10 nM
IC50 (PC-3 cells; [4]): 66 nM
IC50 (22Rv1 cells; [5]): 72 ± 10 nM
IC50 (22Rv1 cells; [6]): 92 ± 5 nM
IC50 (22Rv1 cells; [4]): 65 nM
SMILES: CCN(CC)C(=S)SSC(=S)N(CC)CC [DSF, disulfiram, reference compound]
Cu(II) added to the growth medium required for antiproliferative activity (22Rv1 cells; checkerboard pilot studies in 22Rv1 cells): 300 nM
patients who developed grade 3 adverse events (mCRPC patients): 6 of the 12
toxicity and efficacy outcome (mCRPC patients): significant toxicity without improvement in efficacy

Ki (GGT): 99000 ± 7000 nM
SMILES: N[C@@H](CCC(=O)N[C@@H](CS)C(=O)NCC(=O)O)C(=O)O [GSH, glutathione, reference compound]
